tested on: panel of sensorially trained experts; assay: Sensorial assessment of toothpastes containing the flavourings (Examples S-1 to S-4); format: in vivo, human; settings: flavouring 1.2 wt. % in toothpaste base, usage conditions
Description: The flavourings obtained in this way were worked into a standard silica toothpaste base in a concentration of 1.2 wt. %. The toothpastes were tested by a panel of sensorially trained experts under usage conditions. The sensorial assessments were as follows: very pleasant, rich and voluminous minty freshness with a comparatively fast onset, strong and marked and comparatively very long-lasting cooling fresh impression, wherein it was noticeable that the sensation of coldness was rapidly perceptible in the whole of the oral cavity. Additionally the flavour was assessed as being softer and more neutral and less sharp than without the compounds according to the invention.
The flavourings in a concentration of 1.2% were worked into a toothpaste base comprising an amount of 65% of sodium bicarbonate. The toothpastes were tested under usage conditions and assessed by a panel of sensorially trained experts. In each case a pleasant, powerful spearmint flavour in combination with a voluminous and long-lasting fresh taste was noted.
The flavourings obtained in this way were in each case worked into a standard silica toothpaste base in a concentration of 1.2 wt. %. The toothpastes were tested by a panel of sensorially trained experts under usage conditions. […]

SMILES | sensorial assessment of cooling fresh impression
CCNC(=O)C1CC(C)CCC1C(C)C (stereo not shown) [WS-3, menthane-3-carboxylic acid-N-ethylamide] | less powerful, less voluminous and less long-lasting

tested on: not given; assay: not given; settings: J. Soc. Cosmet. Chem. 1978, 29, 185-200, study of approximately 1200 compounds; cited from earlier work

SMILES | cooling action
CC1CCC(C(C)C)C(C(=O)NCC(=O)O)C1 [N^α-(L-menthanecarbonyl)glycine] | very weak cooling action
CCOC(=O)CNC(=O)C1CC(C)CCC1C(C)C (stereo not shown) [WS5, N-[[5-methyl-2-(1-methylethyl)cyclohexyl]carbonyl]glycine ethyl ester] | most strongly cooling active ingredients
CCNC(=O)C1CC(C)CCC1C(C)C (stereo not shown) [WS-3, menthane-3-carboxylic acid-N-ethylamide] | most strongly cooling active ingredients

same assay, conditions: US 2005/0222256; cited from earlier work

SMILES | irritancy
CCOC(=O)CNC(=O)C1CC(C)CCC1C(C)C (stereo not shown) [WS5, N-[[5-methyl-2-(1-methylethyl)cyclohexyl]carbonyl]glycine ethyl ester] | strongly irritant

biological target: human TRPM8 receptor (Homo sapiens (Human), UniProt Q7Z2W7); assay: Assay on TRPM8 modulators (Ca2+-sensitive dye, HEK293-TRPM8 test cells, EC50 determination); format: cell-based; settings: Table C, structure type 3; assay according to reference example 3
Sequence (Q7Z2W7 whole entry): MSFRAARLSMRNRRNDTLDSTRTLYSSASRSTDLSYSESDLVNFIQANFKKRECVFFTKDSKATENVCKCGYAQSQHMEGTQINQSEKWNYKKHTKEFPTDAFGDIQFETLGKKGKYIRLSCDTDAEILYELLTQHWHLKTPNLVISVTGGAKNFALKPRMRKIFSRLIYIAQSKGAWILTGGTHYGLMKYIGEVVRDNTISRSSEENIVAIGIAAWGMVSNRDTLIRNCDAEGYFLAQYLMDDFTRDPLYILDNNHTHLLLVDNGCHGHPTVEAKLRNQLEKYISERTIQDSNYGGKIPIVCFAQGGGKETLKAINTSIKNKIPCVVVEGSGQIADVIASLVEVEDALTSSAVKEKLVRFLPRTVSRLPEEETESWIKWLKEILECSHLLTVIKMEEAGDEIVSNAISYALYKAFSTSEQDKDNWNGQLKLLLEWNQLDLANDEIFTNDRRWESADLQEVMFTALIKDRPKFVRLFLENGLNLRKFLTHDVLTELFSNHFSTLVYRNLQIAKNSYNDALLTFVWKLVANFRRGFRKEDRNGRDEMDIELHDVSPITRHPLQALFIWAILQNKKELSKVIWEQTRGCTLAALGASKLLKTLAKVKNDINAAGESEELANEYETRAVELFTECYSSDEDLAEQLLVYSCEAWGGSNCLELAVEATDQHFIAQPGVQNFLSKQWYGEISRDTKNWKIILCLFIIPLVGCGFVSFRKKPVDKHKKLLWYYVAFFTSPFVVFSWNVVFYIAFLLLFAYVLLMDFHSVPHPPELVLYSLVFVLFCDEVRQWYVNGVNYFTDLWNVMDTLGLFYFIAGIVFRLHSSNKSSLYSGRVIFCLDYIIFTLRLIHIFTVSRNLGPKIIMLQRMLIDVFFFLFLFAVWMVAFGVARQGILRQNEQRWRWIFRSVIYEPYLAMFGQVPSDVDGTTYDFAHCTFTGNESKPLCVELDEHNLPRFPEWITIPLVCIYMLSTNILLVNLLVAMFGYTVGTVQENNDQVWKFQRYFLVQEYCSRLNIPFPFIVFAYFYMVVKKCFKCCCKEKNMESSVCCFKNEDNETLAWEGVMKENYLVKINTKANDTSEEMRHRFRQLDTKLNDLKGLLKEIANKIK
Source text: As a test cell system the human TRPM8 DNA (see plasmid pInd-M8 above) was used to prepare a stable transfixed HEK293 cell line. Here preference is for HEK293 which via the plasmid introduced offers the possibility of induction of the TRPM8 expression by means of tetracycline.
The agonisation or antagonisation of the receptor can be quantified by means of a Ca^2+-sensitive dye (e.g. FURA, Fluo-4, etc.).
To begin with, in a manner known per se, in cell culture flasks a fresh culture of transformed HEK cells is prepared. The HEK293-TRPM8 test cells are removed using trypsin from the cell culture flasks and 40 000 cells/well are sown with 100 μl medium in 96-well plates (Greiner #655948 Poly-D-lysine coated). In order to induce the TRPM8 receptor the growth medium tetracycline is mixed in (DMEM/HG, 10% FCS tetracycline-free, 4 mM L-glutamine, 15 μg/ml blasticidin, 100 μg/ml hygromycin B, 1 μg/ml tetracycline). The next day the cells are charged with Fluo-4Am dye and the test is performed.
The test substances are used in triplicate in concentrations of between 0.1 and 200 μm in the assay. Normally the compounds are kept ready in DMSO solutions and diluted for the assay to a maximum DMSO concentration of 2%.

SMILES | EC50 [µM]
O=C(COc1ccc2c(c1)OCO2)N(c1ccccc1)C1CCCCC1 [Compound 3-44] | 1
COc1ccc(OCC(=O)N(c2ccccn2)C2CCCCC2)cc1 [Compound 3-45] | 4
O=C(c1c(Cl)cccc1Cl)N(Cc1ccccc1)c1ccccn1 [Compound 3-49] | 5.5

Further lines, results first:

EC50 [µM] | SMILES
3.3 | COc1ccc(CCC(=O)N(c2ccccn2)C2CCCCC2)cc1 [Compound 3-42]
6.8 | O=C(CCc1ccc2c(c1)OCO2)N(c1ccccc1)c1ccccc1 [Compound 3-43]
3 | O=C(COc1ccccc1)N(c1nccs1)C1CCCCC1 [Compound 3-46]
1.7 | Cc1ccccc1N(Cc1ccccc1)C(=O)Cc1ccccc1 [Compound 3-47]
10.9 | COc1ccc(C(=O)N(c2ccccn2)C2CCCCC2)cc1 [Compound 3-48]

From US10584134B2, “Use of physiological cooling active ingredients, and agents containing such active ingredients” (SYMRISE AG, priority 2009, dated 2020)
